Test results reported in patent US20240335547A1, “MODIFIED CHOLIC ACID CONJUGATES” (priority 2022, published 2024).
≈ marks a conversion by molar mass, not a printed value.

Key:
[1] = 7 days, pH 7
Excerpt: Storage stability in buffer was monitored over time of at least 7 days to determine the effect of solution pH and degradation.

[2] = system: Candida albicans; test: Fungicidal activity MIC/MBC; type: cell-based; settings: Yeast
[3] = in vitro; settings: human
[4] = target: 3CL Protease (SARS-COV-2) (Severe acute respiratory syndrome coronavirus 2, UniProt P0DTD1); test: 3CL Protease (SARS-COV-2) Inhibitor Assay; type: biochemical
Procedure: The compound is dissolved in DMSO. A series of dilutions were prepared with 5% DMSO in 3CL Protease assay buffer. 10 μl of the dilution was added to a 50 μl reaction so that the final concentration of DMSO is 1% in all of the reactions. The compound was pre-incubated in duplicate at room temperature for 30 minutes in a mixture containing 3CL Pro assay buffer, 3CL enzyme and a test compound. After 30 minutes, the enzymatic reactions were initiated by the addition of 3CL Protease substrate. The enzymatic reaction proceeded for 4 hours at room temperature. Fluorescence intensity was measured at an excitation of 360 nm and an emission of 460 nm using a Tecan Infinite M1000 microplate reader.

[5] = system: Pseudomonas; test: Bactericidal activity MIC/MBC; type: cell-based; settings: Gram−
[6] = system: Golgi apparatus, mitochondria, and endoplasmic reticulum (ER); type: cell-based, human
Excerpt: The effect of compound 12 was studied on cellular structures and organelles such as Golgi apparatus, mitochondria, and endoplasmic reticulum (ER).

[7] = Histopathological studies (H&E staining, imaging) of lungs of infected and non-infected mice; type: in vivo, BALB/c mice
Procedure: Group A: No infection, treated with PBS: Ten (10) BALB/c 6-weeks old female mice were used for this group. Mice were first anesthetized with isoflurane. Each mouse was intranasally treated with one dose of PBS (75 ul). Mice were sacrificed at 72 hrs, and 7 days post treatment. The lungs from these mice were collected for immunohistochemistry and cytokines analysis.
Group B: No infection, treated with Compound 12: Twenty (20) BALB/c 6-weeks old female mice was used for this group. Mice were first anesthetized with isoflurane. Each mouse was intranasally treated with one dose of 0.5 mg of […] diluted in PBS (75 ul). Mice were sacrificed at 24 hrs, 48 hrs, 72 hrs, and 7 days post treatment. The lungs from these mice were collected for immunohistochemistry and cytokines analysis.
(§1) Group C: Infection with 229E, treated with PBS: Thirty five (35) BALB/c 6-weeks old female mice were used for this group. Mice were first anesthetized with isoflurane. Each mouse was intranasally infected with 1×105 plaque forming unit (pfu) of HCoV-229E and then treated with PBS (75 ul) 24 hours later. Mice were sacrificed at 24 hrs post infection, and 24 hrs, 48 hrs, 72 hrs, 6 days, and 7 days post treatment. The lungs from these mice were collected for viral load, immunohistochemistry and cytokines analysis.
(§2) Group D: Infection with 229E, treated with Compound 12: Forty Five (45) BALB/c 6-weeks old female mice were used for this group. Mice were first anesthetized with isoflurane. Each mouse was intranasally infected with 1×10^5 pfu of HCoV-229E and then treated with 0.5 mg of Compound 12 diluted in PBS (75 ul) 24 hours later. Mice from this group were sacrificed at 24 hrs, 48 hrs, 72 hrs, 6 days and 7 days post treatment. The lungs from these mice were collected for viral load, immunohistochemistry and cytokines analysis.

[8] = system: TNF-α; test: TNF-α production in HEK293 Cells; type: cell-based; settings: 5 μg/ml
Excerpt: It was confirmed that Compound 12 stimulates TNF-α production in HEK293 Cells.

[9] = system: Coronavirus 229E; test: "Disinfectant" experiments: virus pre-mixed with compound, then added to HFFs; type: cell-based; settings: Human coronavirus 229E, 0.25 h; mixed with virus 15 minutes at room temperature before adding to HFFs
Procedure: In the “disinfectant” experiments, stock solution of Compound 12 was generated by dissolving the compound in 10% DMSO solution. Different amounts of Compound 12 from the stock solution were mixed with 10^4 PFU of Coronavirus 229E. After incubation at room temperature for 15 minutes, the mixture of virus and Compound 12 was added to the culture of primary human foreskin fibroblasts (HFFs). At 24 hours post-infection, culture medium was changed and the infected HFFs were further cultured in the absence of Compound 12. The level of inhibition of virus infection and production was determined.

[10] = system: Calu-3 cells; test: Cytotoxicity Assay (MTS); type: cell-based; settings: 24 h
Procedure: Calu-3 cells were seeded in 96-well plates one day prior to testing. At 80-90% confluency, growth medium was removed and replaced with a medium containing 50 μg/mL of compound 12 dilutions. All treatments were added in quadruplicate or quintuplicate wells. Plates were incubated for 24 h before being washed and replaced with fresh untreated growth medium. MTS was added to each well as recommended by the manufacturer's protocol (CellTiter 96 Aqueous One Solution Cell Proliferation Assay, Promega, Madison, WI, USA) and incubated for 3-4 h.
After incubation, absorbance was measured at 490 nm on a SpectraMax M5 (Molecular Devices, LLC, San Jose, CA, USA) plate reader with SoftMax Pro 6.2.1 software.

[11] = system: MRSA; test: Bactericidal activity MIC/MBC; type: cell-based; settings: Staphylococcus aureus
[12] = system: HCoV-229E; test: In vivo viral load in mice lung tissue; set-up: species or system BALB/c mice; settings: 2 days and 3 days post-treatment, versus control mice
Procedure: FIG. 6 illustrates the in vivo viral load reduction in mice lung tissue administered Compound 12 compared to control mice that were not administered a compound of the disclosure. In the Group administered Compound 12, a substantial (30-200 fold) reduction of virus replication and production was recorded 2 days and 3 days post-treatment.
as §1, §2

## C[C@H](CCC(=O)NCCNC(=O)CCCC[C@@H]1SCC2NC(=O)NC21)C1CCC2C3C(C[C@H](OC(=O)CCN)[C@@]21C)[C@@]1(C)CC[C@@H](OC(=O)CCN)CC1C[C@H]3OC(=O)CCN (stereo partly drawn) [Compound 12]
[1]
  stability, time: up to 7 days
  stable with no degradation, time: at least 7 days
[2]
  MBC: 66.2 µg/mL (≈ 74.4 µM)
  MIC: 66.2 µg/mL (≈ 74.4 µM)
[3]
  CC50 at 3 days: > 200 µM
[4]
  IC50: > 10 µM
[4]; 0.0003 μM, 2 repeats
  % Activity: 101%
  activity at 0.0003 µM: 99%
[4]; 0.001 μM, 2 repeats
  activity at 0.001 µM: 103%
[4]; 0.003 μM, 2 repeats
  activity at 0.003 µM: 103%
[4]; 0.01 μM, 2 repeats
  % Activity: 100%
  activity at 0.01 µM: 96%
[4]; 0.03 μM, 2 repeats
  activity at 0.03 µM: 95%
[4]; 0.1 μM, 2 repeats
  % Activity: 89%
  activity at 0.1 µM: 90%
[4]; 0.3 μM, 2 repeats
  % Activity: 88%
  activity at 0.3 µM: 91%
[4]; 1 μM, 2 repeats
  % Activity: 89%
  activity at 1 µM: 90%
[4]; 3 μM, 2 repeats
  % Activity: 79%
  activity at 3 µM: 82%
[4]; 10 μM
  inhibition at 10 µM: 24%
[4]; 10 μM, 2 repeats
  % Activity: 77%
  activity at 10 µM: 75%
[5]
  MBC: 1060 µg/mL (≈ 1190 µM)
  MIC: 530 µg/mL (≈ 595 µM)
[6]
  effect on overall structure and organization of cellular structures and organelles: did not affect the overall structure and organization
[7]; 3 days post treatment, 0.5 mg intranasally
  effect on the morphology of the lung: does not cause significant detrimental effects
[7]; dosage 0.5 mg/mice
  toxicity in vivo: does not exhibit significant toxicity in vivo
[7]; intranasal, 0.5 mg
  detection of compound in the lung tissues (staining and imaging): detected at 1-2 days post treatment but not in 3 days post treatment
[8]
  TNF-α generated: 7,123 pg/ml
[9]
  EC50: 500 µg/mL (≈ 562 µM)
[10]
  IC50 (i.e., CC50): 154 µM
[11]
  MBC: 1060 µg/mL (≈ 1190 µM)
  MIC: 530 µg/mL (≈ 595 µM)
[12]
  reduction of virus replication and production: 30-200 fold
